Each structure is given as a SMILES string.

One experiment concerns the target T1, trehalose phosphorylase (Thermoanaerobacter brockii, UniProt Q8L164).
T1 construct: recombinant E. coli enzyme (pTTP4) equivalent
T1 sequence (Q8L164 2-774): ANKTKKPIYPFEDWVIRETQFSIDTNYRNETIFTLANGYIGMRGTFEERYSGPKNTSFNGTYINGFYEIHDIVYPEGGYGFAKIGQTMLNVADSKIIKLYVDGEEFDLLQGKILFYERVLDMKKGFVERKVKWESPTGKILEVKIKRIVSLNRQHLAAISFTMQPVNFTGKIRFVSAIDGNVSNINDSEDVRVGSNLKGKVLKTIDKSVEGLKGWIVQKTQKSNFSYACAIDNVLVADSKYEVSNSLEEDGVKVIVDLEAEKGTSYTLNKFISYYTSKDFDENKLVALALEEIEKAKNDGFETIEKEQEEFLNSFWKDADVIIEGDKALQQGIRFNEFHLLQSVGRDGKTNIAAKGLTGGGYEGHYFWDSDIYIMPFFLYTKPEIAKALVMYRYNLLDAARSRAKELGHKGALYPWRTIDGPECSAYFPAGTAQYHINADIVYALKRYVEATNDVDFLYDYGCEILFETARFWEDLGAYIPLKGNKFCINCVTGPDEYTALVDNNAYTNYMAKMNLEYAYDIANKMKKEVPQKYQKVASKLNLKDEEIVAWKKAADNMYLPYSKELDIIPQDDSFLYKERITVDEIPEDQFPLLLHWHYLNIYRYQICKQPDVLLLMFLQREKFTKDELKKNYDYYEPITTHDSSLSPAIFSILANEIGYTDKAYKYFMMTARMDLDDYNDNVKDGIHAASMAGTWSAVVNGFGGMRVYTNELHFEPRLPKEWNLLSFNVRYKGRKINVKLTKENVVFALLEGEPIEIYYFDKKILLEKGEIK
The experiment in a line: Trehalose phosphorylase activity assay: inhibition and activation by added substances. The experiment is classed as biochemical, Thermoanaerobium brockii. The following applies: one mM. The protocol:
The present trehalose phosphorylase activity is assayed as follows: Add 0.2 ml of an enzyme solution to 2 ml of 20 mM phosphate buffer (pH 7.0) containing 1.0 w/v % trehalose as a substrate, incubate the solution at 60° C. for 30 min, sample the reaction mixture in an amount of 0.5 ml, and incubate the sample at 100° C. for 10 min to suspend the enzymatic reaction. Add 0.5 ml of D-glucose oxidase/peroxidase reagent to the heated sample, stir the mixture, keep the mixture at 40° C. for 30 min, add 2.5 ml of 5-N hydrochloric acid, stir the resulting mixture, and measure the absorbance of the mixture at a wavelength of 525 nm. One unit of the enzyme activity is defined as the enzyme that forms one […] of D-glucose per one minute. The activity of maltose- and kojibiose-phosphorylases can be assayed similarly as the same assay as indicated above except that the trehalose as a substrate is respectively replaced with maltose and kojibiose.
Influences of temperatures and pHs on the present trehalose phosphorylase activity were studied in accordance with the assay for enzyme activity. To study the influence of temperatures, the enzyme was reacted at temperatures of about 50-85° C. in place of 60° C. as used in the enzyme assay. In the case of studying the influence of pHs, the enzyme was reacted at pHs of about 4-9 in place of the buffer's pH as used in the assay for the enzyme activity. In both cases, the enzymatic reactions were suspended similarly as in the enzyme assay, followed by quantifying the formed glucose. […] The thermal stability of the enzyme was determined by incubating the enzyme dissolved in 10 mM phosphate buffer (pH 7.0) at a temperature of about 40-85° C. for one hour, cooling the incubated enzyme, and assaying for the residual enzyme activity according to the enzyme assay. The pH stability of the enzyme was determined by dissolving the enzyme in buffers with different pHs of about 4-10, keeping each enzyme solution at 4° C. for 24 hours, adjusting each solution to give a pH of 7.0, and assaying for the residual enzyme activity according to the enzyme assay. […] The enzyme activity was inhibited by one mM Cu^++, Pb^++, Zn^++, Hg^++, Mg^++, or Mn^++.
Turning to `O[C@H](CS)[C@H](O)CS` (racemic) [dithiothreitol], the “Activation and stabilization of the enzyme” value is recorded as “Activated”. With `[Cu+2]` [Cu^++], the Enzyme activity inhibition entry is “inhibited”. Take `[Hg+2]` [Hg^++]: the Enzyme activity inhibition entry was “inhibited”. On the same count and under the same terms, the same measure for `[Mg+2]` [Mg^++]: “inhibited”; for `[Mn+2]` [Mn^++]: “inhibited”. For `[Pb+2]` [Pb^++], the Enzyme activity inhibition entry is “inhibited”. With `[Zn+2]` [Zn^++], the Enzyme activity inhibition result is reported as “inhibited”.

The target in a further experiment is T1, trehalose phosphorylase. The experiment in a line: Specificity to acceptor in glucosyl-transferring saccharide-forming reaction by trehalose phosphorylase (TLC). The experiment is classed as biochemical, Thermoanaerobium brockii. To be noted: used as donor in place of β-D-glucose-1-phosphoric acid. The protocol:
An aqueous solution, which dissolved in an equal amount, by dry weight, […], […] obtained by the method in Experiment 2, and enzymatically reacted at 60° C. and pH 7.0 for 24 hours. Similarly as in Experiment 5, the pre-reaction solutions and the post-reaction mixtures were subjected to TLC, followed by coloring the plates. Comparing spots of the samples of the solutions and mixtures detected on the plates, it was judged whether transferred saccharides were formed based on newly detected spots of the post reaction mixtures. By macroscopically observing the coloration degree of the newly detected spots, the yield of the transferred saccharides was relatively evaluated.
Turning to `O=P(O)(O)O[C@H]1O[C@H](CO)[C@@H](O)[C@H](O)[C@H]1O` [α-D-glucose-1-phosphoric acid], the “Formation of glucosyl-transferred saccharide when used as saccharide donor” value is recorded as “No glucosyl-transferred saccharide was obtained”.

In the next experiment the target is T1, trehalose phosphorylase. The experiment in a line: Substrate specificity for saccharide-hydrolyzing reaction by trehalose phosphorylase (TLC). The experiment is classed as biochemical, Thermoanaerobium brockii. On the set-up: key: +: Hydrolyzed by the action of the present trehalose phosphorylase.; -: Not hydrolyzed by the action of the present trehalose phosphorylase. To be noted: saccharide 2 w/v %, 10 units/g saccharide purified enzyme, 5 mM disodium hydrogenphosphate, 60° C., pH 7.0, 24 hours. The protocol: An aqueous solution of a saccharide selected from D-glucose, maltose, sucrose, lactose, trehalose, neotrehalose, cellobiose, melibiose, kojibiose, isomaltose, sophorose, gentibiose, nigerose, laminaribiose, maltopentaose, and 4-O-α-D-glucosyltrehalose was mixed with 10 units/g saccharide, d.s.b., of a purified trehalose phosphorylase obtained by the method in Experiment 2, and incubated in the presence of 5 mM disodium hydrogenphosphate at 60° C. and pH 7.0 for 24 hours. The saccharide concentration of each reaction solution was 2 w/v %. Pre-reaction solutions and post-reaction mixtures were subjected to thin layer chromatography (hereinafter abbreviated as "TLC") using "KIESELGEL 60 (20×20 cm)", an aluminum plate for TLC commercialized by Merck & Co., Inc., Rahway, USA. Samples were developed once at ambient temperature on the plate using 1-butanol/pyridine/water (=7:3:1 by volume) as a developing solvent system, and the plate was sprayed with 20 v/v % sulfuric acid/methanol solution, and heated at 110° C. for about 10 min for coloration. Comparing spots of the solutions and mixtures detected on the plates, it was checked whether the enzyme acted on the saccharides.
With `OC[C@H]1O[C@H](O[C@H]2O[C@H](CO)[C@@H](O[C@H]3O[C@H](CO)[C@@H](O)[C@H](O)[C@H]3O)[C@H](O)[C@H]2O)[C@H](O)[C@@H](O)[C@@H]1O` [4-O-α-D-glucosyltrehalose], the Decomposition entry was “-”. Consider `OC[C@H]1O[C@@H](O[C@H]2[C@H](O)[C@@H](O)C(O)O[C@@H]2CO)[C@H](O)[C@@H](O)[C@@H]1O` (stereo partly drawn) [Cellobiose], for which the Decomposition entry is listed as “-”. On the same count and under the same terms, the same measure for `OC[C@H]1OC(O)[C@H](O)[C@@H](O)[C@@H]1O` (stereo partly drawn) [D-Glucose]: “-”; for `OC[C@H]1O[C@@H](OC[C@H]2OC(O)[C@H](O)[C@@H](O)[C@@H]2O)[C@H](O)[C@@H](O)[C@@H]1O` (stereo partly drawn) [Gentibiose]: “-”; for `OC[C@H]1O[C@H](OC[C@H]2OC(O)[C@H](O)[C@@H](O)[C@@H]2O)[C@H](O)[C@@H](O)[C@@H]1O` (stereo partly drawn) [Isomaltose]: “-”. For `OC[C@H]1O[C@H](O[C@H]2C(O)O[C@H](CO)[C@@H](O)[C@@H]2O)[C@H](O)[C@@H](O)[C@@H]1O` (stereo partly drawn) [Kojibiose], the Decomposition result is recorded as “-”. For `OC[C@H]1O[C@@H](O[C@H]2[C@H](O)[C@@H](O)C(O)O[C@@H]2CO)[C@H](O)[C@@H](O)[C@H]1O` (stereo partly drawn) [Lactose], the Decomposition result is “-”. `OC[C@H]1O[C@@H](O[C@H]2[C@H](O)[C@@H](CO)OC(O)[C@@H]2O)[C@H](O)[C@@H](O)[C@@H]1O` (stereo partly drawn) [Laminaribiose]: the Decomposition result was “-”. Turning to `OC[C@H]1O[C@H](O[C@H]2[C@H](O)[C@@H](O)[C@@H](O[C@H]3[C@H](O)[C@@H](O)[C@@H](O[C@H]4[C@H](O)[C@@H](O)[C@@H](O[C@H]5[C@H](O)[C@@H](O)C(O)O[C@@H]5CO)O[C@@H]4CO)O[C@@H]3CO)O[C@@H]2CO)[C@H](O)[C@@H](O)[C@@H]1O` (stereo partly drawn) [Maltopentaose], the Decomposition result is “-”. As to `OC[C@H]1O[C@H](O[C@H]2[C@H](O)[C@@H](O)[C@H](O)O[C@@H]2CO)[C@H](O)[C@@H](O)[C@@H]1O` [Maltose], the Decomposition result is given as “-”. Regarding `OC[C@H]1O[C@H](OC[C@H]2OC(O)[C@H](O)[C@@H](O)[C@@H]2O)[C@H](O)[C@@H](O)[C@H]1O` (stereo partly drawn) [Melibiose], the Decomposition result was “-”. Consider `OC[C@H]1O[C@@H](O[C@H]2O[C@H](CO)[C@@H](O)[C@H](O)[C@H]2O)[C@H](O)[C@@H](O)[C@@H]1O` [Neotrehalose], for which the Decomposition result is “-”. For the compound `OC[C@H]1O[C@H](O[C@H]2[C@H](O)[C@@H](CO)OC(O)[C@@H]2O)[C@H](O)[C@@H](O)[C@@H]1O` (stereo partly drawn) [Nigerose], the Decomposition entry is recorded as “-”. As to `OC[C@H]1O[C@@H](O[C@H]2C(O)O[C@H](CO)[C@@H](O)[C@@H]2O)[C@H](O)[C@@H](O)[C@@H]1O` (stereo partly drawn) [Sophorose], the Decomposition entry is recorded as “-”. Take `OC[C@H]1O[C@@](CO)(O[C@H]2O[C@H](CO)[C@@H](O)[C@H](O)[C@H]2O)[C@@H](O)[C@@H]1O` [Sucrose]: the Decomposition entry was “-”. Still for that read-out and setting: the same measure for `OC[C@H]1O[C@H](O[C@H]2O[C@H](CO)[C@@H](O)[C@H](O)[C@H]2O)[C@H](O)[C@@H](O)[C@@H]1O` [Trehalose]: “+”.

Values taken from US5993889A, “Trehalose phosphorylase, its preparation and use” (Kabushiki Kaisha Hayashibara Seibutsu Kagaku Kenkyujo, priority 1996, dated 1999).
